Reference: ChEMBL document CHEMBL3421576, “N-((1,3-Diphenyl-1H-pyrazol-4-yl)methyl)anilines: A novel class of anti-RSV agents” (Bioorg Med Chem Lett, 2015)

What was measured:
[1] = tested on: Bovine viral diarrhea virus 1; assay: Antiviral activity against BVDV infected in bovine MDBK cells assessed as protection against viral-induced cytopathogenecity after 3 to 4 days by MTT method; type: functional, organism-based
[2] = tested on: Yellow fever virus; assay: Antiviral activity against YFV infected in hamster BHK21 cells assessed as protection against viral-induced cytopathogenecity after 3 to 4 days by MTT method; type: functional, organism-based, BHK-21
[3] = Selectivity index, ratio of CC50 for hamster BHK21 cells to EC50 for YFV infected in hamster BHK21 cells; parameters: species or system BHK-21
[4] = Cytotoxicity against African green monkey Vero 76 cells assessed as cell viability after 48 to 96 hrs by MTT method; type: cell-based; details: chlorocebus sabaeus
[5] = tested on: Respiratory syncytial virus; assay: Antiviral activity against RSV infected in African green monkey Vero 76 cells after 5 days by plaque reduction assay; type: functional, organism-based
[6] = Selectivity index, ratio of CC50 for African green monkey Vero 76 cells to EC50 for RSV infected in African green monkey Vero 76 cells
[7] = tested on: Coxsackievirus B5; assay: Antiviral activity against Coxsackievirus B5 infected in African green monkey Vero 76 cells after 3 days by plaque reduction assay; type: functional, organism-based
[8] = tested on: Enterovirus C; assay: Antiviral activity against Poliovirus Sb-1 infected in African green monkey Vero 76 cells after 2 days by plaque reduction assay; type: functional, organism-based
[9] = tested on: Vaccinia virus; assay: Antiviral activity against Vaccinia virus infected in African green monkey Vero 76 cells after 3 days by plaque reduction assay; type: functional, organism-based, Orthopoxvirus vaccinia
[10] = tested on: Human alphaherpesvirus 1; assay: Antiviral activity against HSV1 infected in African green monkey Vero 76 cells after 3 days by plaque reduction assay; type: functional, organism-based
[11] = tested on: Vesicular stomatitis virus; assay: Antiviral activity against VSV infected in African green monkey Vero 76 cells after 2 days by plaque reduction assay; type: functional, organism-based
[12] = Cytotoxicity against bovine MDBK cells assessed as cell viability after 72 hrs by MTT method; type: cell-based, Bos taurus; details: cattle
[13] = Cytotoxicity against hamster BHK21 cells assessed as cell viability after 72 hrs by MTT method; type: cell-based, Mesocricetus auratus, BHK-21
[14] = Cytotoxicity against human MT4 cells assessed as cell viability after 96 hrs by MTT method; type: cell-based
[15] = tested on: Human immunodeficiency virus 1; assay: Antiviral activity against HIV1 infected in human MT4 cells assessed as protection against viral-induced cytopathogenecity after 4 days by MTT method; type: functional, organism-based; details: Human immunodeficiency virus 1, MT4, 96 h
[16] = tested on: Mammalian orthoreovirus 1; assay: Antiviral activity against Reovirus 1 infected in hamster BHK21 cells assessed as protection against viral-induced cytopathogenecity after 3 to 4 days by MTT method; type: functional, cell-based; details: Mammalian orthoreovirus 1, BHK-21
[17] = Bovine viral diarrhea virus isolates and strains, MDBK
[18] = human respiratory syncytial virus, Vero, 120 h
[19] = Enterovirus C, Sb-1, Vero, 48 h
[20] = Orthopoxvirus vaccinia, Vero, 72 h
[21] = Human alphaherpesvirus 1, Vero, 72 h
[22] = Vesicular stomatitis virus, Vero, 48 h

Structure (SMILES)	Ratio CC50/EC50 [6]	CC50 at 72 h [12] [µM]	EC50 [1, 17] [µM]	CC50 at 72 h [13] [µM]	EC50 ([2]; Yellow fever virus, BHK-21) [µM]	CC50 ([4]; Vero 76 cells) [µM]	EC50 [5, 18] [µM]	CC50 at 96 h [14] [µM]	EC50 [15] [µM]	EC50 [16] [µM]	EC50 ([7]; Enterovirus B, Vero, 72 h) [µM]	EC50 [8, 19] [µM]	EC50 [9, 20] [µM]	EC50 [10, 21] [µM]	EC50 [11, 22] [µM]	also measured
Clc1ccc(NCc2cn(-c3ccccc3)nc2-c2ccc(Br)cc2)cc1	>11.1															EC50 ([1]; mdbk): ≥ 100 µM; EC50 ([2]; bhk-21): 43 µM; Ratio CC50/EC50 [3]: >2.3; CC50 ([4]; vero 76): > 100 µM; EC50 ([5]; vero): 9 µM; EC50 ([7]; vero): > 100 µM; EC50 ([8]; vero): > 100 µM; EC50 ([9]; vero): > 100 µM; EC50 ([10]; vero): > 100 µM; EC50 ([11]; vero): > 100 µM
Cc1ccc(NCc2cn(-c3ccccc3)nc2-c2ccc(Br)cc2)cc1	>9.1	> 100	> 100	> 100	> 100	> 100	11	> 100	> 100	> 100	> 100	> 100	> 100	> 100	> 100	
Cc1ccc(-c2nn(-c3ccccc3)cc2CNc2ccc(Br)cc2)cc1	8.4	> 100	> 100	> 100	> 100	92	11	> 100	> 100	> 100	> 92	> 92	> 92	> 92	> 92	
Cc1ccc(NCc2cn(-c3ccccc3)nc2-c2ccc(C)cc2)cc1	>3.6	> 100	> 100	> 100	> 100	> 100	28	> 100	> 100	> 100	> 100	> 100	> 100	> 100	> 100	
Brc1ccc(-c2nn(-c3ccccc3)cc2CNc2ccccc2)cc1	5.8	> 100	> 100	> 100	20	52	9	> 100	> 100	> 100	> 52	> 52	> 52	> 52	> 52	Ratio CC50/EC50 [3]: >5
FC(F)(F)c1ccc(-c2nn(-c3ccccc3)cc2CNc2ccc(Br)cc2)cc1	3.4	64	> 64	28	> 28	17	5	> 100	> 100	> 28	> 17	> 17	> 17	> 17	> 17	
FC(F)(F)c1ccc(-c2nn(-c3ccccc3)cc2CNc2ccc(Cl)cc2)cc1		44	> 44	31	> 31	10	> 10	> 100	> 100	> 31	> 80	> 80	> 80	> 80	> 80	
FC(F)(F)c1ccc(NCc2cn(-c3ccccc3)nc2-c2ccccc2)cc1		34	> 34	37	> 37	17	> 17	> 100	> 100	> 37	> 75	> 75	> 75	> 75	> 75	
FC(F)(F)c1ccc(NCc2cn(-c3ccccc3)nc2-c2ccc(Cl)cc2)cc1		31	> 31	17	> 17	18	> 18	> 100	> 100	> 17	> 18	> 18	> 18	> 18	> 18	
FC(F)(F)c1ccc(NCc2cn(-c3ccccc3)nc2-c2ccc(C(F)(F)F)cc2)cc1		26	> 26	27	> 37	26	> 26	> 100	> 100	> 27	> 26	> 26	> 26	> 26	> 26	
Cc1ccc(-c2nn(-c3ccccc3)cc2CNc2ccc(C(F)(F)F)cc2)cc1		> 100	> 100	88	> 100	45	> 45	> 100	> 100	> 88	> 45	> 45	> 45	> 45	> 45	
FC(F)(F)c1ccc(NCc2cn(-c3ccccc3)nc2-c2ccc(Br)cc2)cc1		46	> 46	20	> 28	28	> 28	> 100	> 100	> 20	> 28	> 28	> 28	> 28	> 28	
C[C@@]1(O)[C@H](O)[C@@H](CO)O[C@H]1n1ccc(N)nc1=O				> 100						6						
O=c1cnn([C@@H]2O[C@H](CO)[C@@H](O)[C@H]2O)c(=O)[nH]1 [6-AZAURIDINE]	11.1			> 100	46	10	0.9									Ratio CC50/EC50 [3]: >2.2
Nc1nc2c(ncn2COCCO)c(=O)[nH]1 [ACYCLOVIR]						> 100								2.8		
COc1c(C)c2c(c(O)c1C/C=C(\C)CCC(=O)O)C(=O)OC2 [MYCOPHENOLIC ACID]						19							1.5			
Cc1cc(CCCOc2c(C)cc(-c3noc(C(F)(F)F)n3)cc2C)on1 [PLECONARIL]						80					0.005	2.2				
